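Interpolation was linear, between the two tested concentrations surrounding the appropriate level; five concentrations were tested over 48 hours in 96-well plates. GI50 is the concentration that inhibits growth by half. The concentration for full growth arrest is given as TGI.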
How the values were obtained:
Experiment in all cases: NCI tumour cell line growth inhibition, 48 h
[1] = test system: 786-0 renal
[2] = test system: A498 renal
[3] = test system: A549 NSCLC
[4] = test system: ACHN renal
[5] = test system: BT-549 breast
[6] = test system: CAKI-1 renal
[7] = test system: CCRF-CEM leukemia
[8] = test system: COLO 205 colon
[9] = test system: DU-145 prostate
[10] = test system: EKVX NSCLC
[11] = test system: HCC-2998 colon
[12] = test system: HCT-116 colon
[13] = test system: HCT-15 colon
[14] = test system: HL-60(TB) leukemia
[15] = test system: HOP-62 NSCLC
[16] = test system: HOP-92 NSCLC
[17] = test system: HS 578T breast
[18] = test system: HT29 colon
[19] = test system: IGROV1 ovarian
[20] = test system: K-562 leukemia
[21] = test system: KM12 colon
[22] = test system: LOX IMVI melanoma
[23] = test system: M14 melanoma
[24] = test system: MALME-3M melanoma
[25] = test system: MCF7 breast
[26] = test system: MDA-MB-231 breast
[27] = test system: MDA-MB-435
[28] = test system: MOLT-4 leukemia
[29] = test system: NCI-H226 lung
[30] = test system: NCI-H23 lung
[31] = test system: NCI-H460 lung
[32] = test system: NCI-H522 lung
[33] = test system: NCI/ADR-RES ovarian
[34] = test system: OVCAR-3 ovarian
[35] = test system: OVCAR-4 ovarian
[36] = test system: OVCAR-5 ovarian
[37] = test system: OVCAR-8 ovarian
[38] = test system: PC-3 prostate
[39] = test system: RPMI-8226 leukemia
[40] = test system: SF-268 CNS
[41] = test system: SF-295 CNS
[42] = test system: SF-539 CNS
[43] = test system: SK-MEL-2 melanoma
[44] = test system: SK-MEL-28 melanoma
[45] = test system: SK-MEL-5 melanoma
[46] = test system: SK-OV-3 ovarian
[47] = test system: SN12C renal
[48] = test system: SNB-19 CNS
[49] = test system: SNB-75 CNS
[50] = test system: SR leukemia
[51] = test system: SW-620 colon
[52] = test system: T-47D breast
[53] = test system: TK-10 renal
[54] = test system: U251 CNS
[55] = test system: UACC-257 melanoma
[56] = test system: UACC-62 melanoma
[57] = test system: UO-31 renal

In the case of `Oc1cccc(-c2nc(-c3n[nH]c(=S)n3-c3ccccc3)cc3c2[nH]c2ccccc23)c1`, the GI50 [1] is reported as 3.19 µM, the TGI [1] is reported as 11 µM and the GI50 [2] is reported as 2.15 µM. For the same compound, the TGI [2] was 5.8 µM, the GI50 [3] was 2.89 µM and the TGI [3] was 11.1 µM. The GI50 [4] was 3.95 µM, the TGI [4] was 14.6 µM and the GI50 [5] was 2.67 µM. The TGI [5] was 6.8 µM, the GI50 [6] was 2.81 µM and the TGI [6] was 11.9 µM. It also gave a GI50 [7] of 3.85 µM, a TGI [7] of 18.7 µM and a GI50 [8] of 2.45 µM. The TGI [8] was 7.22 µM, the GI50 [9] was 2.57 µM and the TGI [9] was 7.02 µM. For the same compound, the GI50 [10] was 4 µM, the TGI [10] was 23.4 µM and the GI50 [11] was 2.17 µM. The TGI [11] was 4.53 µM, the GI50 [12] was 3.28 µM and the TGI [12] was 9.82 µM. For the same compound, the GI50 [13] was 2.88 µM, the TGI [13] was 10.9 µM and the GI50 [14] was 3.38 µM. The TGI [14] was 8.98 µM, the GI50 [15] was 2.24 µM and the TGI [15] was 7.96 µM. It also gave a GI50 [16] of 4.31 µM, a TGI [16] of 18.1 µM and a GI50 [17] of 3.43 µM. The TGI [17] was 24.6 µM, the GI50 [18] was 2.55 µM and the TGI [18] was 6.18 µM. For the same compound, the GI50 [19] was 2.29 µM, the TGI [19] was 11.2 µM and the GI50 [20] was 3.16 µM. The TGI [20] was 21.6 µM, the GI50 [21] was 3.15 µM and the TGI [21] was 11.7 µM. For the same compound, the GI50 [22] was 1.8 µM, the TGI [22] was 3.83 µM and the GI50 [23] was 2.72 µM. For the same compound, the TGI [23] was 10.3 µM, the GI50 [24] was 4.05 µM and the TGI [24] was 17.4 µM. For the same compound, the GI50 [25] was 3.37 µM, the TGI [25] was 13.6 µM and the GI50 [26] was 3.19 µM. For the same compound, the TGI [26] was 13 µM, the GI50 [27] was 1.26 µM and the TGI [27] was 4.5 µM. For the same compound, the GI50 [28] was 3.78 µM, the TGI [28] was 14 µM and the GI50 [29] was 3.92 µM. For the same compound, the TGI [29] was 18.6 µM, the GI50 [30] was 3.97 µM and the TGI [30] was 19.7 µM. For the same compound, the GI50 [31] was 3.1 µM, the TGI [31] was 9.5 µM and the GI50 [32] was 1.8 µM. The TGI [32] was 4.98 µM, the GI50 [33] was 13.2 µM and the TGI [33] was 69.7 µM. The GI50 [34] was 2.18 µM, the TGI [34] was 5.73 µM and the GI50 [35] was 3.79 µM. For the same compound, the TGI [35] was 17.3 µM, the GI50 [36] was 4.38 µM and the TGI [36] was 15.7 µM. For the same compound, the GI50 [37] was 3.09 µM, the TGI [37] was 8.83 µM and the GI50 [38] was 2.63 µM. The TGI [38] was 10.9 µM, the GI50 [39] was 2.69 µM and the TGI [39] was 7.86 µM. The GI50 [40] was 3.56 µM, the TGI [40] was 14.7 µM and the GI50 [41] was 2.16 µM. It also gave a TGI [41] of 5.75 µM, a GI50 [42] of 1.8 µM and a TGI [42] of 3.96 µM. The GI50 [43] was 1.88 µM, the TGI [43] was 6.08 µM and the GI50 [44] was 1.81 µM. The TGI [44] was 7.28 µM, the GI50 [45] was 3.15 µM and the TGI [45] was 11 µM. The GI50 [46] was 3.02 µM, the TGI [46] was 8.72 µM and the GI50 [47] was 4.03 µM. It also gave a TGI [47] of 15.5 µM, a GI50 [48] of 3.11 µM and a TGI [48] of 11.4 µM. For the same compound, the GI50 [49] was 1.72 µM, the TGI [49] was 5.89 µM and the GI50 [50] was 3.07 µM. The TGI [50] was greater than 100 µM, the GI50 [51] was 3.63 µM and the TGI [51] was 11.9 µM. The GI50 [52] was 2.14 µM, the TGI [52] was 8.18 µM and the GI50 [53] was 4.08 µM. For the same compound, the TGI [53] was 16.3 µM, the GI50 [54] was 2.98 µM and the TGI [54] was 11 µM. The GI50 [55] was 3.22 µM, the TGI [55] was 9.88 µM and the GI50 [56] was 2.4 µM. It also gave a TGI [56] of 8.77 µM, a GI50 [57] of 2.09 µM and a TGI [57] of 11.7 µM.
